According to patent US20230043863A1, “HETEROAROMATIC DERIVATIVES FOR USE AS REGULATOR, PREPARATION METHOD THEREFOR AND USE THEREOF” (JIANGSU HANSOH PHARMACEUTICAL GROUP CO., LTD., priority 2018, published 2023):

Columns and labels:
[1] = biological target: JAK2 (Homo sapiens, UniProt O60674); experiment: JAK kinase activity inhibition, TR-FRET (JAK2); type: biochemical; conditions: TR-FRET kinase assay
Protocol: (§1) Experimental objective: The objective of this test is to test the inhibitory effect of the compound on JAK kinase activity.
(§2) Experimental method: the fluorescence resonance energy transfer (TR-FRET) method was used to test the inhibitory effect of the compound on JAK kinase activity, and the half inhibitory concentration IC50 of the compound on JAK kinase activity was obtained.
(§3) Kinase reaction was carried out in a white 384-well plate (PerkinElmer). 1-5 μL of different concentrations of the compound diluted with DMSO and ddH2O was added into each well, and 1-5 μL of the corresponding solvent was added to the positive control wells, followed by addition of 0.1-20 nM JAK kinase solution diluted with 1-5 μL of kinase buffer (HEPES 50-250 mM, MgCl2 5-20 mM, etc.) was added to each well. 1-5 μL of kinase buffer was added to the negative control well. 1-5 μL of substrate mixture containing peptide substrate and ATP was added. The plate was incubated at room temperature for 0.5-5 hours. […], EDTA and detection solution containing labeled antibody was added, and then the plate was incubated at room temperature for another 1-24 hours. The fluorescence signal value at about 620 nm and 665 nm of each well was measured by BioTek Synergy H1 plate reader, and the inhibition rate was calculated by the fluorescence signal value. According to the inhibition rate of different concentrations, the IC50 of the compound was obtained by curve fitting.
(§4) The percentage inhibition data of the wells treated with the compound was calculated with the positive control wells (DMSO control wells) and negative control wells (no kinase added) on the plate {% inhibition rate=100-[(test compound value-negative control value)]/(Positive control value-negative control value)×100}. IC50 value was calculated by using GraphPad prism to fit the data of different concentrations and corresponding percentage inhibition rates to a 4-parameter non-linear logic formula.

[2] = biological target: JAK1 (Homo sapiens, UniProt P23458); experiment: JAK kinase activity inhibition, TR-FRET (JAK1); type: biochemical; conditions: TR-FRET kinase assay
Procedure, shortened: (§5)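 Recombinant kinase at 0.1-20 nM, peptide substrate, ATP; room temperature, 0.5-5 h; EDTA stop, labeled-antibody TR-FRET readout; IC50 by curve fit.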

[3] = biological target: TYK2 (Homo sapiens, UniProt P29597); experiment: JAK kinase activity inhibition, TR-FRET (TYK2); type: biochemical; conditions: TR-FRET kinase assay
Procedure, shortened: as §5

[4] = test system: JAK-STAT signal pathway of U266 cells; experiment: Inhibition of cellular JAK-STAT signal pathway (STAT3 phosphorylation) in U266 cells; type: cell-based, human; conditions: Homo sapiens, U-266, INF-a 1000 U/mL stimulation
Procedure, shortened: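 U266 cells (100-300 K/well) preincubated 2 h at room temperature with serially diluted compound, then stimulated 15 min with IFN-α at 1000 U/mL final. After lysis, STAT3 phosphorylation read by LANCE Ultra TR-FRET (Eu antibody 0.5 nM, ULight antibody 5 nM, overnight) at 665 nm; IC50 from 4-parameter fit of inhibition versus DMSO and negative controls.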

[5] = biological target: T1, JAK3 (Homo sapiens, UniProt P52333); experiment: JAK kinase activity inhibition, TR-FRET (JAK3); type: biochemical; conditions: TR-FRET kinase assay
T1 sequence (P52333 1-1124): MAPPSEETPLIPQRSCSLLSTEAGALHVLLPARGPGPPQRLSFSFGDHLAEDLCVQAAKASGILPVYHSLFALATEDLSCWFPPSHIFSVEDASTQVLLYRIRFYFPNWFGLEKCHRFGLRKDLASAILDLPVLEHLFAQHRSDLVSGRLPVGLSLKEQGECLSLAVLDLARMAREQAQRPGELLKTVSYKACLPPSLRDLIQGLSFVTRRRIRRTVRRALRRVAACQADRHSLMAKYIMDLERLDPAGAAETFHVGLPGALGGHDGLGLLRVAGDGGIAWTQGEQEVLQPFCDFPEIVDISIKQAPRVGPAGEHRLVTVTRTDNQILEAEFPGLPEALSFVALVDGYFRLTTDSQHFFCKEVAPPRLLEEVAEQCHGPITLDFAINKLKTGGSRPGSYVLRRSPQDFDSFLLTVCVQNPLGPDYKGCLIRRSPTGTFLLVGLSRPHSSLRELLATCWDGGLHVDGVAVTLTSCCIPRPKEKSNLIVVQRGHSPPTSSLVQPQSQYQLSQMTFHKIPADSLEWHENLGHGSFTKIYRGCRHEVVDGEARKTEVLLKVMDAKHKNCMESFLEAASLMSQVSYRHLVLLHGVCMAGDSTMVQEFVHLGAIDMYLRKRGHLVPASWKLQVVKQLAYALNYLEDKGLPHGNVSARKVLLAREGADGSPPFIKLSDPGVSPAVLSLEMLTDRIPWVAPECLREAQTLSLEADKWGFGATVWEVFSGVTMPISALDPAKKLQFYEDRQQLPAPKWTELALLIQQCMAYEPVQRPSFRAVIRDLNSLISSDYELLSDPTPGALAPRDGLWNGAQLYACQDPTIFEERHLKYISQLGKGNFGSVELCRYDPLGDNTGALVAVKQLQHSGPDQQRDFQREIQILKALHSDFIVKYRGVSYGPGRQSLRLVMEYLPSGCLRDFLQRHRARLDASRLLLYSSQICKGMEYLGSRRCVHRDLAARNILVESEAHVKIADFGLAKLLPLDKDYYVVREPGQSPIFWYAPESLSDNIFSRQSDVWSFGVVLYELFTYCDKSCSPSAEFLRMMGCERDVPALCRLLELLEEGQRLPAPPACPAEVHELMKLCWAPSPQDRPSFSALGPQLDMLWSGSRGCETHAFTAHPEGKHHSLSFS
Protocol: as §1, §2, §3, §4

[6] = test system: C57BL/6 mouse colitis model induced by DSS; experiment: C57BL/6 mouse colitis model induced by DSS, daily disease index; type: in vivo; conditions: po, 216 h, 10 mg/kg p.o. BID, Day 0-9, vs vehicle group, read-out: reduction ratio of DAI AUC
Protocol: To evaluate the drug efficacy of the embodiment compound on the C57BL/6 mouse colitis model induced by DSS (dextran sulfate sodium).
According to the weight of the animal, BioBook software was used to randomly group the animals on day −1 to ensure that the weight values of each group of animals were similar to reduce deviation, and the grouping and dosing regimen are shown in the following Table.
Drinking water containing DSS: an appropriate amount of DSS powder was dissolved in the autoclaved drinking water to prepare a 2% DSS solution.
On day −1, the animals were equally divided into 12 groups with 10 animals in each group. (Refer to Table 1 for specific grouping scheme)
From 9:00 on day 0 to 9:00 on day 6, the mice in groups 2 to 9 were given 2% DSS aqueous solution for 6 days (from day 0 to day 6), after which the mice were allowed to freely drink normal water for 3 days (from 9:00 on day 6 to before necropsy on day 9). The day of modeling was counted as day 0. The DSS aqueous solution was wrapped in tin foil to protect it from light. The DSS aqueous solution was replaced every 2 days.
The mice in group 1 are allowed to drink normal water freely for 9 days (from 9:00 on day 0 to before necropsy on day 9).
The recording frequency was once a day, and 4 levels were rated according to the following standards:
Bloody stool (0: negative; 4: positive);
Stool score (0: normal; 2: loose stool; 4: diarrhea)
Daily Disease Index (DAI) was obtained by dividing the sum the scores of the above 3 parts by 3. DAI-time (day) curve based on the daily DAI score was plotted, and the peak area (AUC) under the curve was calculated. The reduction ratio of DAI AUC was calculated by comparing the administration group with the vehicle group, with a calculation formula of (DAI AUCadministration group-DAI AUCvehicle)/DAI AUCVehicle×100%

TYK2, sequence (P29597 whole entry): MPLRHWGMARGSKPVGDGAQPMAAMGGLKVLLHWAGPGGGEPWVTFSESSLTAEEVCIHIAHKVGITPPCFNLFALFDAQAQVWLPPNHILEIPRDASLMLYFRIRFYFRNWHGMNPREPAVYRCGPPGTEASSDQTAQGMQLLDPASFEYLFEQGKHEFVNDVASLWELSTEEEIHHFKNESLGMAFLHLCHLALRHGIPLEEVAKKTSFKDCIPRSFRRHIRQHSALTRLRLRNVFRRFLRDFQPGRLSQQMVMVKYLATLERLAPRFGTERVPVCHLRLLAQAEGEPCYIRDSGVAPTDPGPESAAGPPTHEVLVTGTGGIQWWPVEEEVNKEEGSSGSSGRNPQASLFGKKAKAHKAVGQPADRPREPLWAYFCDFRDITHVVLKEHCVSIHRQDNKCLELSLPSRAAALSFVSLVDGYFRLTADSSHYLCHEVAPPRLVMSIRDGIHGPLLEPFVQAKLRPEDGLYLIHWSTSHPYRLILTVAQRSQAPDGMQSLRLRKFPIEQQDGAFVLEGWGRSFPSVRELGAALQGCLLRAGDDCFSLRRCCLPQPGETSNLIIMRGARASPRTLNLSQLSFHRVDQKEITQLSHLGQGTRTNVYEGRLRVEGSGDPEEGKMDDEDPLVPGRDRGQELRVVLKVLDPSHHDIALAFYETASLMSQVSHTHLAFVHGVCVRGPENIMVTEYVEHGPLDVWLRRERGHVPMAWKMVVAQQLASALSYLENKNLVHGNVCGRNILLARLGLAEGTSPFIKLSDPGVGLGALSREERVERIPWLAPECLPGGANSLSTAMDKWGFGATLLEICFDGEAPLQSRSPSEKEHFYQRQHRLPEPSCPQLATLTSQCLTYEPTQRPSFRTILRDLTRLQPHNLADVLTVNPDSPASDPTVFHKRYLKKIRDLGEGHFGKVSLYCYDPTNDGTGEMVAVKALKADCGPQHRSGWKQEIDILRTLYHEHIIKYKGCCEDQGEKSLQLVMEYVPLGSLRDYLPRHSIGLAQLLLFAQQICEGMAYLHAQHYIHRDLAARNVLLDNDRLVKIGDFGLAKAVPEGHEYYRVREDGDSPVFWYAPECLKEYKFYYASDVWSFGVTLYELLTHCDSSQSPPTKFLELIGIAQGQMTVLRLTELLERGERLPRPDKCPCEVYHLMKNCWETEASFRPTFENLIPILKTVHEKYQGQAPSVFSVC
JAK1, sequence (P23458 whole entry): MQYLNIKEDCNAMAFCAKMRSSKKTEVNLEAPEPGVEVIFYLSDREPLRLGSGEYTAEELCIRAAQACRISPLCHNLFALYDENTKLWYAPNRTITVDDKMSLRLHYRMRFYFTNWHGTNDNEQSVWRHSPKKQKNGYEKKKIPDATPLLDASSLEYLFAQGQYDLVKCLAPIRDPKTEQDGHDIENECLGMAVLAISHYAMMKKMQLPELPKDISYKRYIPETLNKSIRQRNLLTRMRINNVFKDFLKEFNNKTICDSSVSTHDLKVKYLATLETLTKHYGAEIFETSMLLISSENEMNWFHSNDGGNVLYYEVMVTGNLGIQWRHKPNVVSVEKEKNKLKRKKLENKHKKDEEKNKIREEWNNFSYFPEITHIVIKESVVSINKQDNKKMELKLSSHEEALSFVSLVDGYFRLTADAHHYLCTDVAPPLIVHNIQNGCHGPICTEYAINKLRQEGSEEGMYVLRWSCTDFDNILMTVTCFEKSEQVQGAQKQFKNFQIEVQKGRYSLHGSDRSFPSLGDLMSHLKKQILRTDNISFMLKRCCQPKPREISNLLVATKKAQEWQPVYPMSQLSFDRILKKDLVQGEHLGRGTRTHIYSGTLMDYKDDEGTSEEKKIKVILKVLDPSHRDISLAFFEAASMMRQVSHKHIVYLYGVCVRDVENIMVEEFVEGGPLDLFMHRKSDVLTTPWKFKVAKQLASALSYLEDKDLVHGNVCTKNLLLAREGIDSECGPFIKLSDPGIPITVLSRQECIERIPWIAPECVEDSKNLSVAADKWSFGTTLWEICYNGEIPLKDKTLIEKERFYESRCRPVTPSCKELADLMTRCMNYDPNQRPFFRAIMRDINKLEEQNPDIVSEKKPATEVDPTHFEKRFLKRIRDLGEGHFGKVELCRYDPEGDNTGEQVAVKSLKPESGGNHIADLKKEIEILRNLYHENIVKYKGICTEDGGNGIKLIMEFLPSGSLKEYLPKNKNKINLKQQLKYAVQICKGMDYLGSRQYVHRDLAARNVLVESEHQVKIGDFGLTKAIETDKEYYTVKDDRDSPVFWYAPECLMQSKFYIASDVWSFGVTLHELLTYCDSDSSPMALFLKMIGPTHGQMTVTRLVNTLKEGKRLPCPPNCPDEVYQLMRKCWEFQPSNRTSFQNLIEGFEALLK
JAK2, sequence (O60674 whole entry): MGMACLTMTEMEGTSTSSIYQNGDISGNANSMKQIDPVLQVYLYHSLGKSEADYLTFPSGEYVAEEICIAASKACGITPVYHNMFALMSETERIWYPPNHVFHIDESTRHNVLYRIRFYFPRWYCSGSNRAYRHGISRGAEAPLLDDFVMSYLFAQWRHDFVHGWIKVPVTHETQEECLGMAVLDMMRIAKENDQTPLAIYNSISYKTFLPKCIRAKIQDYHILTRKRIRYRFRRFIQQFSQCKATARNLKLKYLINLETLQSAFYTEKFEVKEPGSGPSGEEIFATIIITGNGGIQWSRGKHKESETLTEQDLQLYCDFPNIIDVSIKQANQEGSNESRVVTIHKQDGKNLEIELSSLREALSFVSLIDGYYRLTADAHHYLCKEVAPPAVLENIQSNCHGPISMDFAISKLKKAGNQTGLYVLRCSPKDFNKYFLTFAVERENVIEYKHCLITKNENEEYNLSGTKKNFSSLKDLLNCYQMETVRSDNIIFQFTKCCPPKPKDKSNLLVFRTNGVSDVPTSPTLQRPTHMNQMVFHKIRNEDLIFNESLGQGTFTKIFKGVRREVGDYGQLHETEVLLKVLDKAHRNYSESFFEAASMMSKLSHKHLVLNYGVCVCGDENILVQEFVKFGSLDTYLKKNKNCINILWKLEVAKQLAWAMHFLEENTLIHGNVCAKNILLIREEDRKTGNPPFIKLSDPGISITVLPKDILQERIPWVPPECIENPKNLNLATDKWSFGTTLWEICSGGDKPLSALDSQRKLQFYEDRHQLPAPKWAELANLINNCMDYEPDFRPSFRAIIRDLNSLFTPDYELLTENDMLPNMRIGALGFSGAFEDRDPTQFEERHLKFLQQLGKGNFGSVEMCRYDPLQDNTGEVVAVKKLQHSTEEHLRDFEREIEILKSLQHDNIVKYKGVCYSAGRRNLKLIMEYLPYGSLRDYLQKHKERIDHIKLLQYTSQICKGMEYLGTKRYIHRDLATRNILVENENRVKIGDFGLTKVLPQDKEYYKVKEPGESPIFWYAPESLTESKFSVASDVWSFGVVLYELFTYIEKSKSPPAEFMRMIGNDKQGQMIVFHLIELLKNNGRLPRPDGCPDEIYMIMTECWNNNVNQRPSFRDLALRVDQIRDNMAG

| Compound | IC50 [1] [nM] | IC50 [2] [nM] | IC50 [3] [nM] | IC50 [4] [nM] | IC50 [5] [nM] | change in vivo at 10 mg/kg [6] [%] |
| --- | --- | --- | --- | --- | --- | --- |
| Cc1cc(Nc2cc3ncccc3c(N[C@@H]3C[C@@H]4CN(CCC#N)C[C@@H]4C3)n2)n[nH]1 [Embodiment 5, 3-(cis-5-((7-((5-methyl-1H-pyrazol-3-yl)amino)-1,6-diazanaphthalen-5-yl)amino)hexahydrocyclopentadieno[c]pyrrole-2(1H)-yl)propionitrile] | 1.39 | 0.85 | 4.44 | 4.12 | 26.5 | – |
| Cc1cc(Nc2nc(N[C@@H]3C[C@H]4CCC[C@@H](C3)N4C(=O)CN(C)C)nc3sccc23)n[nH]1 [Embodiment 242, 2-(dimethylamine)-1-((3-exo)-3-((4-((5-methyl-1H-pyrazol-3-yl)amino)thieno[2,3-d]pyrimidin-2-yl)amino)-9-azabicyclo[3.3.1]non-9-yl)ethane-1-one] | 0.85 | 0.21 | 0.89 | 0.24 | 6.58 | – |
| Cc1cc(Nc2nc(N[C@@H]3C[C@H]4CC[C@@H](C3)N4CCC#N)nc3sccc23)n[nH]1 [Embodiment 62, 3-((3-exo)-3-((4-((5-methyl-1H-pyrazol-3-yl)amino)thieno[2,3-d]pyrimidin-2-yl)amino)-8-azabicyclo[3.2.1]oct-8-yl)propionitrile] | – | 0.08 | 0.17 | 1.9 | – | -32.2 |
